Results published in patent US11447525B2 (NIIGATA UNIVERSITY, priority 2018, dated 2022).
Non-standard residues stand in square brackets, D forms with d. Residues, ends and D or L forms follow the SMILES beside them. No end group written: not given here. *: point of attachment. 5FAM = O=C1OC2(c3ccc(O)cc3Oc3cc(O)ccc32)c2ccc(C(=O)*)cc21; NMeR = CN[C@@H](CCCNC(=N)N)C(=O)O

Columns and labels:
[1] = system: pancreatic cancer cells (BxPC3, PK-8, AsPC1); test: Accumulation of FLC-labeled peptides in cells (Test Example 8); format: cell-based, human; details: 2 μM, 37° C., 2 hours
Description: Tests were conducted to confirm the accumulation of various peptides into each of the cells shown below in Table 13. Further, the peptides shown below in Table 14 were used.
Each peptide was added to each of the cells shown in Table 13 in an amount sufficient to achieve a final concentration in the medium of 2 μM, and following cultivation of the cells at 37° C. for 2 hours, the sample was washed 3 times with a medium containing no peptide to remove any peptide within the medium. Subsequently, the incorporation of each of the peptides into each of the cells was evaluated visually using an inverted fluorescence microscope. Prior to the microscopic examination, the culture supernatant to which the peptide had been added was removed, and following washing three times with 1×PBS (−), a trypsin treatment was conducted to remove the adherent cells, and the resultant was immediately transferred into a new 96-well plate and once again suspended in fresh culture solution before the microscopic examination was performed. In FIG. 23, “pep(−)” indicates the control cells to which no peptide was administered, and “single PCPP11” indicates cells to which FLC (fluorescein)-PCPP11 had been added. Further, “mal” indicates a maleimide group, with the peptide and the FLC bonded together by forming a covalent bond between the thiol group (—SH) of a cysteine residue and a maleimide group introduced into the FLC.

[2] = system: human pancreatic cancer growth and progression mouse model (subcutaneous and intraperitoneal human pancreatic cancer cell-transplanted); test: Selective absorption into tissues of human pancreatic cancer growth and progression mouse model, fluorescence signal (Test Examples 3, 4, Reference Example 2); format: in vivo, Balb/c nu/nu mouse; details: 200 μg intravenously, 30 minutes after injection
Description: Subsequently, 200 μg of each of the fluorescent labeled peptides prepared above in “1.” was injected intravenously into a human pancreatic cancer growth and progression mouse model (Balb/c nu/nu mouse, subcutaneous and intraperitoneal human pancreatic cancer cell-transplanted model). The pharmacokinetics of the peptide 30 minutes after the intravenous injection were then analyzed by tissue analysis of the freshly dissected specimen of the administered mouse, with the absorption quantified by detection of the fluorescence signal. […] In FIG. 9A, “sc tumor” is an abbreviation for “subcutaneous tumor”. In FIG. 9B, “abd tumor” is an abbreviation for “abdominal tumor”, indicating a tumor formed intraperitoneally. Further, “br” indicates the brain, “hr” indicates the heart, “kd” indicates the kidney, and “liv” indicates the liver. Furthermore, “liv. meta” is an abbreviation for “liver metastatic tumor”, and describes a tumor that has metastasized to the liver. Moreover, “panc” indicates the pancreas, and “sp” indicates the spleen. These same abbreviations are also used in subsequent figures. Furthermore, the term “untreated” in FIG. 9A indicates tissues resected from a mouse that was not administered with any fluorescent labeled peptide.
Specifically, first, either 27 μg or 200 μg of fluorescein was injected intravenously into a human pancreatic cancer growth and progression mouse model (Balb/c nu/nu mouse, subcutaneous and intraperitoneal human pancreatic cancer cell-transplanted model). The pharmacokinetics of the FLC 30 minutes after the intravenous injection were then analyzed by tissue analysis of the freshly dissected specimen of the administered mouse, with the absorption quantified by detection of the fluorescence signal.

[3] = Degradation test by human blood plasma, MALDI-TOFMS analysis; format: in vitro ADME; details: for proportion of each peptide when the peak area for the two or more peptides is deemed to be 100%: Ld peptide added to 50% by mass human blood plasma
Description: Specifically, a peptide composed of the amino acid sequence represented by SEQ ID NO: 1 (hereafter sometimes referred to as “PCPP11”) was added to human blood plasma having a concentration of 50% by mass, the mixture was sampled immediately after starting the degradation test (after 0 minutes), and then after 5 minutes, after 10 minutes, after 20 minutes, after 30 minutes, after 60 minutes and after 120 minutes, and the samples were analyzed by MALDI-TOFMS (Matrix Assisted Laser Desorption/Ionization-Time Of Flight Mass Spectrometry). In Table 2, “UK” is an abbreviation for “unknown”. Further, the No. shown for each peptide in Table 2 corresponds with the numerical value recorded on the peaks of the graphs shown in FIG. 1.
Each of the peptides described above was added to human blood plasma having a concentration of 50% by mass, the resulting mixture was sampled immediately after starting the degradation test (after 0 minutes), and then after 5 minutes, after 10 minutes, after 20 minutes, after 30 minutes, after 60 minutes and after 120 minutes, and the samples were analyzed by MALDI-TOFMS. The results are shown in FIGS. 2 to 6 and Tables 4 to 6 shown below. Furthermore, the data for the degradation test by human blood plasma using PCPP11 from Reference Example 1 and the degradation tests by human blood plasma using each of the above peptides are collated in FIG. 7 and Table 7. The SEQ ID NO listed for the FAM-labeled peptide represents the SEQ ID NO of the peptide portion. Further, the No. shown for each peptide in Tables 4 to 6 corresponds with the numerical value recorded on the peaks of the graphs shown in FIGS. 2 to 6. In each table, in those cases where the numerical values are shown separated into an upper row and a lower row, the upper row value indicates the proportion (%) of peak area for two or more peptides relative to the total peak area in the MALDI-TOFMS analysis. On the other hand, the lower row value indicates the proportion (%) of each peptide when the peak area for the two or more peptides is deemed to be 100%. Moreover, for example, for the peptide No. 9 shown in Table 4, the left-side “70.0%” indicates the proportion (%) of the peptide No. 9 when the total peak area for the peptides No. 9 to 11 is deemed to be 100%, whereas the right-side “65%” indicates the proportion (%) of the peptide No. 9 relative to the total peak area in the MALDI-TOFMS analysis. This system is also used in the following tables.

For “R-mR-PTTWHKP-C(-[FLC])-RRPTTWHKP [NmL-Cys(-FLC)-L]”, which “fluorescence compared with FLC-PCPP11” value [1] is on record?
The value was “stronger fluorescence”.

Which results are given for `C[C@@H](O)[C@H](NC(=O)[C@@H](NC(=O)[C@@H]1CCCN1C(=O)[C@H](CCCNC(=N)N)NC(=O)[C@H](CCCNC(=N)N)NC(=O)CNC(=O)[C@@H]1CCCN1C(=O)[C@H](CCCCN)NC(=O)[C@H](Cc1c[nH]cn1)NC(=O)[C@H](Cc1c[nH]c2ccccc12)NC(=O)[C@@H](NC(=O)[C@@H](NC(=O)[C@@H]1CCCN1C(=O)[C@H](CCCNC(=N)N)NC(=O)[C@H](CCCNC(=N)N)NC(=O)CNC(=O)[C@@H]1CCCN1C(=O)[C@H](CCCCN)NC(=O)[C@H](Cc1c[nH]cn1)NC(=O)[C@H](Cc1c[nH]c2ccccc12)NC(=O)[C@@H](NC(=O)[C@@H](NC(=O)[C@@H]1CCCN1C(=O)[C@H](CCCNC(=N)N)NC(=O)[C@H](CCCNC(=N)N)NC(=O)c1ccc2c(c1)C(=O)OC21c2ccc(O)cc2Oc2cc(O)ccc21)[C@@H](C)O)[C@@H](C)O)[C@@H](C)O)[C@@H](C)O)[C@@H](C)O)C(=O)N[C@@H](Cc1c[nH]c2ccccc12)C(=O)N[C@@H](Cc1c[nH]cn1)C(=O)N[C@@H](CCCCN)C(=O)N1CCC[C@H]1C(=O)O` [FAM-LLL] (5FAM-RRPTTWHKPGRRPTTWHKPGRRPTTWHKP-OH; C-terminus assumed)?
inhibitory performance on nonspecific absorption into untargeted normal organs [2]: satisfactorily maintained; absorption into pancreatic malignant tumors compared with the conventional PCPP11 ([2]; FIG. 11): approximately 6 fold

For “RPTTWHKP-G-RRPTTWHKP-K(-[FLC])-RRPTTWHKP (RPTTWHKPGRRPTTWHKPK(fluorescein)RRPTTWHKP) [L(-R)L-Lys(-FLC)-L]”, which “fluorescence compared with FLC-PCPP11” value [1] is on record?
Its value is “stronger fluorescence”.

What about the “fluorescence detected in all of the pancreatic cancer cells” value [1] of the same compound?
The value was “particularly strong fluorescence”.

With “[FLC]-R-mR-PTTWHKP-G-RRPTTWHKP [FLC-NmLL]” as the compound, how does the “fluorescence compared with FLC-PCPP11” value [1] read?
Its value is “stronger fluorescence”.

What does the source list for “RPTTWHKP-C(-[FLC])-RRPTTWHKP-C(-[FLC])-RRPTTWHKP [L(-R)-Cys(-FLC)-L-Cys(-FLC)-L]”?
fluorescence compared with FLC-PCPP11 [1]: stronger fluorescence; fluorescence detected in all of the pancreatic cancer cells [1]: particularly strong fluorescence

What does the source list for “RPTTWHKP-G-RRPTTWHKP-C(-[FLC])-RRPTTWHKP (RPTTWHKPGRRPTTWHKPC(fluorescein)RRPTTWHKP) [L(-R)L-Cys(-FLC)-L]”?
fluorescence compared with FLC-PCPP11 [1]: stronger fluorescence; fluorescence detected in all of the pancreatic cancer cells [1]: particularly strong fluorescence

With `C[C@H](O)[C@@H](NC(=O)[C@@H](Cc1c[nH]c2ccccc12)NC(=O)[C@@H](Cc1c[nH]cn1)NC(=O)[C@@H](CCCCN)NC(=O)[C@H]1CCCN1C(=O)CNC(=O)[C@@H]1CCCN1C(=O)[C@H](CCCCN)NC(=O)[C@H](Cc1c[nH]cn1)NC(=O)[C@H](Cc1c[nH]c2ccccc12)NC(=O)[C@@H](NC(=O)[C@@H](NC(=O)[C@@H]1CCCN1C(=O)[C@H](CCCNC(=N)N)N(C)C(=O)[C@@H](N)CCCNC(=N)N)[C@@H](C)O)[C@@H](C)O)C(=O)N[C@@H](C(=O)N1CCC[C@@H]1C(=O)N[C@H](CCCNC(=N)N)C(=O)N[C@H](CCCNC(=N)N)C(=O)O)[C@H](C)O` [No. 19, R-mR-PTTWHKP-G-pkhwttprr] (H-R[NMeR]PTTWHKPG[dP][dK][dH][dW][dT][dT][dP][dR][dR]-OH; N-terminus and C-terminus assumed) as the compound, how does the “degradation resistance compared with the stand-alone PCPP11 and the FAM-PCPP11” value ([3]; 50% by mass human blood plasma) read?
Its value is “superior degradation resistance”.

What about the degradation products observed ([3]; 50% by mass human blood plasma, within 120 minutes of starting the test) of the same compound?
Its degradation products observed is “no degradation products were observed”.

And the “inhibitory performance on nonspecific absorption into untargeted normal organs” value [2]?
Its value is “maintained satisfactorily”.

What about the “absorption into pancreatic malignant tumors relative to the Ld peptide” value ([2]; FIG. 12B) of the same compound?
Its value is “approximately 1.4 fold”.

With “R-mR-PTTWHKP-C(-[FLC])-RRPTTWHKP-G-RRPTTWHKP [NmL-Cys(-FLC)-LL]” as the compound, how does the “fluorescence compared with FLC-PCPP11” value [1] read?
The value was “stronger fluorescence”.

And the “fluorescence detected in all of the pancreatic cancer cells” value [1]?
The value was “particularly strong fluorescence”.

Which remaining at 5 min ([3]; 50% by mass human blood plasma, 5 min, read-out: degradation resistance (proportion of the peptide retained without degradation)) does the source give for `C[C@H](O)[C@@H](NC(=O)[C@@H](Cc1c[nH]c2ccccc12)NC(=O)[C@@H](Cc1c[nH]cn1)NC(=O)[C@@H](CCCCN)NC(=O)[C@H]1CCCN1C(=O)CNC(=O)[C@@H]1CCCN1C(=O)[C@H](CCCCN)NC(=O)[C@H](Cc1c[nH]cn1)NC(=O)[C@H](Cc1c[nH]c2ccccc12)NC(=O)[C@@H](NC(=O)[C@@H](NC(=O)[C@@H]1CCCN1C(=O)[C@H](CCCNC(=N)N)NC(=O)[C@@H](N)CCCNC(=N)N)[C@@H](C)O)[C@@H](C)O)C(=O)N[C@@H](C(=O)N1CCC[C@@H]1C(=O)N[C@H](CCCNC(=N)N)C(=O)N[C@H](CCCNC(=N)N)C(=O)O)[C@H](C)O` [compound 15] (H-RRPTTWHKPG[dP][dK][dH][dW][dT][dT][dP][dR][dR]-OH; N-terminus and C-terminus assumed) here?
Its remaining at 5 min is 100%.

What about the remaining at 10 min ([3]; 50% by mass human blood plasma, 10 min, read-out: degradation resistance (proportion of the peptide retained without degradation)) of the same compound?
The remaining at 10 min was 100%.

And the remaining at 20 min ([3]; 50% by mass human blood plasma, 20 min, read-out: degradation resistance (proportion of the peptide retained without degradation))?
Its remaining at 20 min is 94%.

What about the remaining at 0.5 h ([3]; 50% by mass human blood plasma, 30 min, read-out: degradation resistance (proportion of the peptide retained without degradation)) of the same compound?
Its remaining at 0.5 h is 84%.

What about the remaining at 1 h ([3]; 50% by mass human blood plasma, 60 min, read-out: degradation resistance (proportion of the peptide retained without degradation)) of the same compound?
Its remaining at 1 h is 58%.

What about the remaining at 2 h ([3]; 50% by mass human blood plasma, 120 min, read-out: degradation resistance (proportion of the peptide retained without degradation)) of the same compound?
The remaining at 2 h was 32%.

And the “degradation resistance (proportion of the peptide retained without degradation)” value ([3]; 50% by mass human blood plasma, Start)?
The value was 100%.

What about the “proportion of each peptide when the peak area for the two or more peptides is deemed to be 100%” value (“proportion of each peptide … to be 100%” for short) ([3]; 5 min) of the same compound?
Its value is “(89.0%)”.

And the “proportion of each peptide … to be 100%” value ([3]; 10 min)?
Its value is “(82.2%)”.

What about the “proportion of each peptide … to be 100%” value ([3]; 20 min) of the same compound?
Its value is “(71.9%)”.

And the “proportion of each peptide … to be 100%” value ([3]; 30 min)?
Its value is “(62.3%)”.

What about the “proportion of each peptide … to be 100%” value ([3]; 60 min) of the same compound?
The value was “(43.0%)”.

What about the “proportion of each peptide … to be 100%” value ([3]; 120 min) of the same compound?
The value was “(24.6%)”.

What about the “proportion of each peptide … to be 100%” value ([3]; Start) of the same compound?
The value was “(96.9%)”.

For RRPTTWHKPGRRPTTWHKP [No. 9], which “degradation resistance compared with the stand-alone PCPP11 and the FAM-PCPP11” value ([3]; 50% by mass human blood plasma) is on record?
The value was “superior degradation resistance”.

Which “persistence time (the time of stable existence)” value ([3]; 50% by mass human blood plasma) does the source give for RRPTTWHKP [No. 1, reference compound] here?
Its value is “less than 20 minutes”.
